Experimental data from patent US9133129B2, “Bicyclic compound” (TAKEDA PHARMACEUTICAL COMPANY LIMITED, priority 2011, dated 2015).

Legend:
[1] = molecular target: T1, human ACC2 (Homo sapiens, UniProt O00763); assay: ACC2 inhibitory activity, malachite green assay with recombinant ACC2 (Nd); format: biochemical; conditions: 1 μM of the test compound; read-out: ACC2 inhibitory rates (%) at 1 μM
T1 construct: made in house; host or cells: SF-9 insect cells, recombinant baculovirus BAC-ACC2 (Nd)
Method: The ACC2 inhibitory action of the compound of the present invention was evaluated by the following method.
(1) Cloning of Human ACC2 Gene and Preparation of Recombinant Baculovirus
Human ACC2 gene was cloned by PCR using a human skeletal muscle cDNA library (Clontech) as a template and Primer 1 and Primer 2 shown below. Primer 1 and Primer 2 were prepared by adding SalI, XbaI restriction enzyme recognition sequences based on the information of the base sequence of human ACC2 gene (Genbank Accession U89344).
(§1) PCR was performed using Pyrobest DNA polymerase (TAKARA BIO INC.). The obtained PCR product was cloned to pT7 Blue vector (Novagen) and after confirmation of the base sequence, digested with restriction enzymes SalI and XbaI. The obtained DNA fragment was inserted into pFAST-BacHTa (Invitrogen) digested with restriction enzymes SalI and XbaI to give expression plasmid ACC2/pFAST-BacHTa.
A plasmid for expression of ACC2 without a mitochondrial targeting sequence was prepared by PCR using the expression plasmid as a template, and Primer 3 (SalI restriction enzyme recognition sequence was added) and Primer 4, which are prepared by reference to the information of human ACC2 gene base sequence (Genbank Accession U89344).
as §1, with “Pyrobest-DNA” for “Pyrobest DNA”, “AflII.” for “XbaI.”, “ACC2/pFAST-BacHTa” for “pFAST-BacHTa (Invitrogen)”, “AflII” for “XbaI”, “ACC2mito7/pFAST-BacHTa.” for “ACC2/pFAST-BacHTa.”
Using the expression plasmid ACC2mito7/pFAST-BacHTa and BAC-TO-BAC Baculovirus Expression System (Invitrogen), virus stock BAC-ACC2 of recombinant Baculovirus (N terminal deleted (hereinafter Nd)) was prepared.
(2) Preparation of ACC2 (Nd) Protein
SF-9 cells (Invitrogen) were inoculated to a medium (10 L) for insect cells (Sf-900IISFM medium (Invitrogen) containing 5% fetal bovine serum (Trace), 50 mg/L Gentamicin (Wako), 0.1% Pluronic F-68 (Invitrogen)) at 1.0×10^6 cells/mL, and cultured with shaking in Wave Bioreactor (GE Health Care) at 27° C., 20 rpm, rocking angle 10°, oxygen concentration 30%.
On day 2 of the culture, recombinant Baculovirus BAC-ACC2 (Nd) was added, and the cells were cultured for 3 days. The culture medium was centrifuged at 1000×g for 10 min to give virus-infected cells. The cells were washed with phosphate buffered saline (Invitrogen) and centrifuged under the same conditions. The obtained cells were cryopreserved at −80° C.
The cryopreserved cells were thawed in ice and suspended in 900 mL of 25 mM HEPES buffer (pH 7.5) containing 10% Glycerol, 0.3 M NaCl, 1 mM EDTA, 25 mM Sodium β-Glycerophosphate and 1 mM Sodium Orthovanadate, and supplemented with Complete Protease Inhibitor (Roche). The obtained suspension was homogenized three times in a polytron homogenizer (Kinematica) at 20,000 rpm for 30 sec. The obtained cell disruption solution was clarified by centrifugation at 186000×g for 60 min. To the supernatant was added 5 mL of AF-chelate 650M Ni chelated carrier (TOSOH), and the mixture was rotated at 4° C. for 1 hr, and centrifuged at 1000×g for 5 min, and the carrier was transferred to opened column. The column was washed with 50 mL of buffer A (50 mM HEPES (pH 7.5) containing 0.3 M NaCl), further washed with buffer A containing 20 mM Imidazole, and eluted with buffer A containing 250 mM Imidazole. The eluate was concentrated with Amicon Ultra 15 (Millipore) with a molecular weight cut off of 50K. The obtained concentrate was filtered using gelfiltration column (HiLoad 26/60 Superdex200 prep grade) (GE Health Care) with 50 mM HEPES buffer (pH 7.5) containing 10 mM MgCl2, 2 mM Dithiothreitol, 10 mM Tripotassium Citrate and 0.3 M NaCl to give ACC2 (Nd). The obtained ACC2 (Nd) was cryopreserved at −80° C.
(3) Measurement of ACC2 Inhibitory Activity […]

T1 sequence (O00763 117-2458 limits assumed): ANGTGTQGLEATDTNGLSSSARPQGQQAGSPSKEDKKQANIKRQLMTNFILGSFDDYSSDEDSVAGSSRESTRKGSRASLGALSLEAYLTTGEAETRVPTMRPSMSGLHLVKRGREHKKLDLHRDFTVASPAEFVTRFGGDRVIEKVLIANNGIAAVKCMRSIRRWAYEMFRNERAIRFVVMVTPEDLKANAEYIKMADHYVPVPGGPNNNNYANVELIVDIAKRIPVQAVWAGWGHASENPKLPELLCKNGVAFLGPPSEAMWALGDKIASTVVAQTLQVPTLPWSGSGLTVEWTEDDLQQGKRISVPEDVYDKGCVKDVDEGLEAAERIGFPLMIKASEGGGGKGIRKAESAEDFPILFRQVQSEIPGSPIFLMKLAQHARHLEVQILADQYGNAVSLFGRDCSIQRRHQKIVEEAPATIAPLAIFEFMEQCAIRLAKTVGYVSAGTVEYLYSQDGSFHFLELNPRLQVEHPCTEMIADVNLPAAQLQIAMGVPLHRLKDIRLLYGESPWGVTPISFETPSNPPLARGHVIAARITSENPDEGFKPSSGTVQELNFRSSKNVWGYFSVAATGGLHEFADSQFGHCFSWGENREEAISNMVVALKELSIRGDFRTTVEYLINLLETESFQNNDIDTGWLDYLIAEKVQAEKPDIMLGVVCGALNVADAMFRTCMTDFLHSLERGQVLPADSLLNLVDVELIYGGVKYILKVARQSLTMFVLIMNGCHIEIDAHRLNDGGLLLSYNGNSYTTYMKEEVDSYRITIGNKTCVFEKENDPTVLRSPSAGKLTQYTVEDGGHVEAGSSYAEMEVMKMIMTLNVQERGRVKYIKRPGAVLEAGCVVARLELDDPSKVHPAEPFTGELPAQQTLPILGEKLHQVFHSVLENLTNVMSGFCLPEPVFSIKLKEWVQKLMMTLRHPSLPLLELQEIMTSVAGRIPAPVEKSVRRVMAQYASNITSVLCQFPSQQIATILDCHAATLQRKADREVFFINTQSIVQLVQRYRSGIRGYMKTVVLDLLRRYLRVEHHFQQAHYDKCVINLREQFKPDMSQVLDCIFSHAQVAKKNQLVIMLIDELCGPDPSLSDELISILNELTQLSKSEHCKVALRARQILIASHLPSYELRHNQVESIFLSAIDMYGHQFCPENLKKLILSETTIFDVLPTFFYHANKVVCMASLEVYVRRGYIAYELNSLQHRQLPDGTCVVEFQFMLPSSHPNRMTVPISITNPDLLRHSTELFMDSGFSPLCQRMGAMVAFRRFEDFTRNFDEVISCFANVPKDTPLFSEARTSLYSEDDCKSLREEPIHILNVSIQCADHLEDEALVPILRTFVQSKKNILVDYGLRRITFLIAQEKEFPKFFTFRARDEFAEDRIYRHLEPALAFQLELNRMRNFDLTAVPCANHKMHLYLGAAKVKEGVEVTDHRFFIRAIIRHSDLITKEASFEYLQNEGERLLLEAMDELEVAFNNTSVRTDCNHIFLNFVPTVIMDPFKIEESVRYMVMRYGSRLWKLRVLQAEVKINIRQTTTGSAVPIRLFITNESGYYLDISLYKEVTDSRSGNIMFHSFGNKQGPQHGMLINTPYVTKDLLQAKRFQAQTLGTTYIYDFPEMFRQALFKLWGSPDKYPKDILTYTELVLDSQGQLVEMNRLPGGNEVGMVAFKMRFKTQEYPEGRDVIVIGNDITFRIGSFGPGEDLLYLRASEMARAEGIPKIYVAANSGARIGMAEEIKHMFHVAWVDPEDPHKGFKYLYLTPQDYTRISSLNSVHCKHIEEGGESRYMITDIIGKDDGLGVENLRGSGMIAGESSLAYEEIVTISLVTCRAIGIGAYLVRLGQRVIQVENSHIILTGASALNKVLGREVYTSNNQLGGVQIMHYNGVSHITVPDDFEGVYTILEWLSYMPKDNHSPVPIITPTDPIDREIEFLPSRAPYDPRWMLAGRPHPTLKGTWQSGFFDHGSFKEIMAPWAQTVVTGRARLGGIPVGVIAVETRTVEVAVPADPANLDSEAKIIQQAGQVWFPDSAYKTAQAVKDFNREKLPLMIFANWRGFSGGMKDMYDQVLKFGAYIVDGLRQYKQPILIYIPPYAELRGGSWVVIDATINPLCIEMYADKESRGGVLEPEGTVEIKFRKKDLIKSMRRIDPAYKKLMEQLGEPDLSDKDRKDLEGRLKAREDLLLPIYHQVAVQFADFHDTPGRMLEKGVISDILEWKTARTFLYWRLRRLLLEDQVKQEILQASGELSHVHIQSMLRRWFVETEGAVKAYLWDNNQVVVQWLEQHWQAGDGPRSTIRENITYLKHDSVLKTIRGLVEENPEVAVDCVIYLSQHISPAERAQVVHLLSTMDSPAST

Row | inhibition at 1 µM [1] [%] | melting point [°C] | SMILES
1 | 90 | 162.9 to 163 | COc1cc(-c2nc3cnc(OC[C@H](C)NC(C)=O)cc3o2)cc(F)c1OCC1CC1 [Example 62, N-((2S)-1-((2-(4-(cyclopropylmethoxy)-3-fluoro-5-methoxyphenyl) [1,3]oxazolo[4,5-c]pyridin-6-yl)oxy)propan-2-yl)acetamide]
2 | 95 | 183.3 to 183.4 | CC(=O)N[C@@H](C)COc1cc2oc(-c3cc(F)c(OCC4CC4)cn3)nc2cn1 [Example 65, N-((2S)-1-((2-(5-(cyclopropylmethoxy)-4-fluoropyridin-2-yl)[1,3]oxazolo[4,5-c]pyridin-6-yl)oxy)propan-2-yl)acetamide]
3 | 98 | 204.6 to 204.7 | CC(=O)N[C@@H](C)COc1cc2oc(-c3ccc(OC[C@H]4CC4(F)F)cc3)nc2cn1 [Example 68, N-((2S)-1-((2-(4-(((1R)-2,2-difluorocyclopropyl)methoxy)phenyl) [1,3]oxazolo[4,5-c]pyridin-6-yl)oxy)propan-2-yl)acetamide]
